Assays:
human OX2R = target: T1, human OX2R (Homo sapiens, UniProt O43614); experiment: Calcium current (FLIPR) in cells stably expressing OX2 receptor; format: cell-based; conditions: for IC50: CHO-K1/human OX2R cells, agonist OX-B at EC80, FLIPR Tetra; for Select fold: OX1R IC50 over OX2R IC50
T1 construct: expressed in transfected cells; host or cells: CHO-K1
T1 sequence (O43614 1-444): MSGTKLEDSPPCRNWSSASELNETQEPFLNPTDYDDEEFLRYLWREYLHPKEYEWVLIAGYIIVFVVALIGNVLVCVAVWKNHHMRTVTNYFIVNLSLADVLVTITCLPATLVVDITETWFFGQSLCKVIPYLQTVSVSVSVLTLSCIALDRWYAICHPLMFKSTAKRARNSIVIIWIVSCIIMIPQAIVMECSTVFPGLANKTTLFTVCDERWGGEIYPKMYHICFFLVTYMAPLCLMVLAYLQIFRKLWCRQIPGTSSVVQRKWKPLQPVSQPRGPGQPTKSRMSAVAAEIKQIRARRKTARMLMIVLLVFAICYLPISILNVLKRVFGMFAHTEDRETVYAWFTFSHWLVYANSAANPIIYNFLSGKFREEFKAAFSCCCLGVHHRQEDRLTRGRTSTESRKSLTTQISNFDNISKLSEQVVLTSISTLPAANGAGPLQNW
Procedure: (§1) Determination of the effect of the compounds of the present invention on calcium current in cells stably expressing OX1 and OX2 receptors 1. Experimental objective: The inhibitory effect of the compounds on calcium current activity in CHO-K1/human OX1R and CHO-K1/human OX2R cells was detected. 2. […] 3. […] The IC50 of the positive compounds and test compounds was determined. 4. Experimental data processing method: FLIPR Tetra was used to read and collect the fluorescence signal value (RFU). […] 5.

human OX1R = target: T2, human OX1R (Homo sapiens, UniProt O43613); experiment: Calcium current (FLIPR) in cells stably expressing OX1 receptor; format: cell-based; conditions: CHO-K1/human OX1R cells; agonist OX-A at EC80; FLIPR Tetra
T2 construct: expressed in transfected cells; host or cells: CHO-K1
T2 sequence (O43613 1-425): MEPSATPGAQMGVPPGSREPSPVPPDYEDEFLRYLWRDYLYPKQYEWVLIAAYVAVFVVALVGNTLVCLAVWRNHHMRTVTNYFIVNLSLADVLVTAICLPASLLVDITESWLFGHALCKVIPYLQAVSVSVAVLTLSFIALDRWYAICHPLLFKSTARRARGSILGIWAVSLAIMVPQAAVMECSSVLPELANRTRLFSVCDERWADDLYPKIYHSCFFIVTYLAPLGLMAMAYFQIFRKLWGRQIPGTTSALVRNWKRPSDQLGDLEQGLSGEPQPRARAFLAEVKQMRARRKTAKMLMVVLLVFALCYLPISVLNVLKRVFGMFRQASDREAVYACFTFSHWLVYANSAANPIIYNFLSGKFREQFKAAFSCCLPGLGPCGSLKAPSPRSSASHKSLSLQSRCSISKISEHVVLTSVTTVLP
Procedure: as §1

in vivo = conditions: male, SD, rat, po, 5 mg/kg
Procedure: SD rats were used as test animals to study the pharmacokinetic behaviour of the compounds of the present invention in rat (plasma) after oral administration at a dose of 5 mg/kg.
The example compound of the present invention, made in house.
Oral administration drug preparation: 20%HP-β-CD in Water
HP-β-CD powder (20 g) was weighed and dissolved in purified water (100 mL), and the mixture was homogeneously mixed by vortex and subjected to ultrasound treatment to afford a clear solution.
The example compound was weighed and added to a 20 mL glass bottle, the solution was added and the mixture was subjected to ultrasound treatment for 10 minutes to afford a colourless clear solution with a concentration of 0.5 mg/mL.
The brain tissues were rinsed with pre-cooled PBS, wiped dry, weighed, and stored at -80°C.
• 1) Acetonitrile (160 µL) was added to plasma sample (40 µL) for precipitation, and the mixture was mixed and centrifuged at 3500 × g for 5 to 20 minutes. • 2) The treated supernatant solution was taken and subjected to LC/MS/MS to analyse the concentrations of the test compounds. LC/MS/MS analysis instrument: AB Sciex API 4000 Qtrap.
• Liquid phase conditions: Shimadzu LC-20AD pump • Chromatographic column: Agilent ZORBAX XDB-C18 (50×2.1 mm, 3.5 µm) mobile phase: liquid A: 0.1% aqueous formic acid solution, liquid B: acetonitrile • Flow rate: 0.4 mL/min • Elution time: 0-4.0 min, the eluent is as follows:
The main pharmacokinetic parameters were calculated using WinNonlin 6.1.

SMILES | IC50 (human OX2R) [nM] | Select fold (human OX2R) | IC50 (human OX1R) [nM] | AUC(0-inf) (in vivo) [ng·h/mL] | Cmax (in vivo) [ng/mL] | Tmax (in vivo) [min]
Cc1nc(N2C[C@H]3CN(C(=O)c4ccc(F)cc4-n4nccn4)C[C@H]3C2)nc(C(C)(C)O)c1F [Compound 10, (4-fluoro-2-(2H-1,2,3-triazol-2-yl)phenyl)((cis)-5-(5-fluoro-4-(2-hydroxypropan-2-yl)-6-methylpyrimidin-2-yl)hexahydropyrrolo [3,4-c]pyrrol-2(1H)-yl)methanone] | 25.2 | 48 | 1200 | – | – | –
Cc1nc(N2C[C@H]3CN(C(=O)c4c(F)cccc4-c4ccccn4)C[C@H]3C2)nc(C(C)(C)O)c1F [Compound 12, ((3aR,6aS)-5-(5-fluoro-4-(2-hydroxypropan-2-yl)-6-methylpyrimidin-2-yl)hexahydropyrrolo[3,4-c]pyrrol-2(1H)-yl)(2-fluoro-6-(pyridin-2-yl)phenyl)methanone] | 7.26 | 36 | 263 | 335 | 420 | 30

Source: patent EP4588921A1, “FREE BASE CRYSTAL FORM OF POLYCYCLIC COMPOUND OF NITROGEN-CONTAINING HETEROCYCLE, AND PREPARATION METHOD THEREFOR” (Jiangsu Hansoh Pharmaceutical Group Co., Ltd., priority 2022, dated 2024)
